The source of these data is patent EP3383875B1, “3-PYRIMIDINYL PYRROLO [2,3-B] PYRIDINE AS ANTICANCER AGENTS AND THE PROCESS FOR THE PREPARATION THEREOF” (Council Of Scientific & Industrial Research, priority 2015, dated 2017).

Read-outs that look alike come from different tables or passages of the source. A value given as a limit tells only on which side of the number the result lay.

Test [1] concerns the target CDK-2/cyclin A (Homo sapiens, UniProt P24941). In words: CDK inhibition assay, CDK-2/cyclin A against Histone HI, 33P-ATP. It is filed as biochemical. As to the method:
Compounds were evaluated for their ability to inhibit CDK2 and CDK9 as given below.
CDK-2/cyclin A (5-20 mU diluted in 50 mM Hepes pH 7.5, 1 mM DTT, 0.02% Brij35, 100 mM NaCl) was assayed against Histone HI in a final volume of 25.5 µl containing 50 mM Hepes pH7.5, 1 mM DTT, 0.02% Brij35, 100 mM NaCl, Histone HI (1 mg/ml), 10 mM magnesium acetate and 0.02 mM [33P-g-ATP](500-1000 cpm/pmole) and incubated for 30 min at room temperature. Assays were stopped by addition of 5 µl of 0.5 M (3%) orthophosphoric acid and then harvested onto P81 Unifilter plates with a wash buffer of 50 mM orthophosphoric acid.

The target of test [2] is CDK-9/Cyclin T1 (Homo sapiens, UniProt P50750). The test is described as follows: CDK inhibition assay, CDK-9/Cyclin T1 against substrate peptide, 33P-ATP. It is filed as biochemical. The protocol:
(50-1000 cpm/pmole) and incubated for 30 min at room temperature. Assays were stopped by addition of 5 µl of 0.5 M (3%) orthophosphoric acid and then harvested onto P81 Unifilter plates with a wash buffer of 50 mM orthophosphoric acid.

Setting [3] is: at 500 nM, Table-6, read-out: In vitro CDK2 % of inhibition.
The mark [4] stands for this setting: at 500 nM, read-out: inhibition against CDK2.
Setting [5] is: at 500 nM, Table-6, read-out: In vitro CDK9 % of inhibition.
[6] abbreviates: at 500 nM, read-out: inhibition against CDK9.
Where [7] appears, read: at 500 nM, Table-7, read-out: In vitro CDK2 % of inhibition.
Where [8] appears, read: at 500 nM, Table-7, read-out: In vitro CDK9 % of inhibition.

Sequence of CDK-9/Cyclin T1 (P50750 whole entry): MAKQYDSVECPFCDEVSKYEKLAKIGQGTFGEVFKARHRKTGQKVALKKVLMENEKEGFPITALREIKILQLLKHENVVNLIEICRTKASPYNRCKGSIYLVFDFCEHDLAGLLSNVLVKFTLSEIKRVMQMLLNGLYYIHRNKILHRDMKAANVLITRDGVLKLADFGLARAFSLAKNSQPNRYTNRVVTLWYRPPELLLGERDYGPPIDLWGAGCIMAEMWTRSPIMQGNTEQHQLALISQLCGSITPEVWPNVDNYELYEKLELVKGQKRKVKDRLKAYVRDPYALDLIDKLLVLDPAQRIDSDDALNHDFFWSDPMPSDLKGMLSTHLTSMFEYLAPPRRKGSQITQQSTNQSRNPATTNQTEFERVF
Sequence of CDK-9/Cyclin T1 (O60563 whole entry partner): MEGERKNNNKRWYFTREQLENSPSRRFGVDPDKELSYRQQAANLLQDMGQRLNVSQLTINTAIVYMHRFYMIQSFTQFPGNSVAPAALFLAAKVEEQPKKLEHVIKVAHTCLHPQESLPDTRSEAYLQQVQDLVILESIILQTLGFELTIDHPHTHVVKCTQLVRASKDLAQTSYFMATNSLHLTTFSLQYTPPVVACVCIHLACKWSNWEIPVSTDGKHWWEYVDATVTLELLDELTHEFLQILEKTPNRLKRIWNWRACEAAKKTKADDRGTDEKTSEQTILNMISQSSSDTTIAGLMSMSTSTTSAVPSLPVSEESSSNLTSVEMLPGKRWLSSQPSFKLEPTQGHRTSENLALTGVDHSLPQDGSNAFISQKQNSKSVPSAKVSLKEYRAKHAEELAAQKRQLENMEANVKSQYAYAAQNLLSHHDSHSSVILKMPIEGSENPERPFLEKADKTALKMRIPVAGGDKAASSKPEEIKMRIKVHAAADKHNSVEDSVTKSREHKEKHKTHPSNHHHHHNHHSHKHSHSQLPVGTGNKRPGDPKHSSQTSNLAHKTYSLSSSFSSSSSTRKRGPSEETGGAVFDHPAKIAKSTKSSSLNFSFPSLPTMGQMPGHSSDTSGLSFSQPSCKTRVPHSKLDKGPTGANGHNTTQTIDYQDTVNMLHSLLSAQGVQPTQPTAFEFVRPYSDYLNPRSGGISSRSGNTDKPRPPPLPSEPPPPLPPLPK

For the molecule `c1cncc(-c2cnc3[nH]cc(-c4ccnc(NC5CCCC5)n4)c3c2)c1` [1A35, N-cyclopentyl-4-(5-(pyridin-3-yl)-1H-pyrrolo[2,3-b]pyridin-3-yl)pyrimidin-2-amine], the inhibition at 0.5 µM in test [1] (setting [3]), in test [1] (setting [4]), in test [2] (setting [5]) and in test [2] (setting [6]) was > 50% throughout.

Consider `CCc1ccccc1-c1cnc2[nH]cc(-c3ccnc(NC4CCCC4)n3)c2c1` [1A30, N-cyclopentyl-4-(5-(2-ethylphenyl)-1H-pyrrolo[2,3-b]pyridin-3-yl)pyrimidin-2-amine], for which the inhibition at 0.5 µM in test [1] (setting [3]), in test [1] (setting [4]), in test [2] (setting [5]) and in test [2] (setting [6]) was > 50% in each case.

Regarding `FC(F)(F)c1cccc(-c2cnc3[nH]cc(-c4ccnc(NC5CCCC5)n4)c3c2)c1` [1A24, N-cyclopentyl-4-(5-(3-(trifluoromethyl)phenyl)-1H-pyrrolo[2,3-b]pyridin-3-yl)pyrimidin-2-amine], the inhibition at 0.5 µM in test [1] (setting [3]), in test [1] (setting [4]), in test [2] (setting [5]) and in test [2] (setting [6]) was > 50% each time.

As for `c1ccc(CCNc2nccc(-c3c[nH]c4ncc(-c5cc6ccccc6[nH]5)cc34)n2)cc1` [1B19, 4-(5-(1H-indol-2-yl)-1H-pyrrolo[2,3-b]pyridin-3-yl)-N-phenethylpyrimidin-2-amine], the inhibition at 0.5 µM in test [1] (setting [7]), in test [1] (setting [4]), in test [2] (setting [8]) and in test [2] (setting [6]) was > 50% in each case.

On to `COc1ccc2[nH]c(-c3cnc4[nH]cc(-c5ccnc(NC6CCCCCC6)n5)c4c3)cc2c1` [1A57, N-cycloheptyl-4-(5-(5-methoxy-1H-indol-2-yl)-1H-pyrrolo[2,3-b]pyridin-3-yl)pyrimidin-2-amine], for which the inhibition at 0.5 µM in test [1] (setting [7]), in test [1] (setting [4]), in test [2] (setting [8]) and in test [2] (setting [6]) was > 70% throughout.

With `c1ccc2c(-c3cnc4[nH]cc(-c5ccnc(NC6CCCC6)n5)c4c3)nccc2c1` [1A40, N-cyclopentyl-4-(5-(isoquinolin-1-yl)-1H-pyrrolo[2,3-b]pyridin-3-yl)pyrimidin-2-amine], the inhibition at 0.5 µM in test [1] (setting [3]), in test [1] (setting [4]), in test [2] (setting [5]) and in test [2] (setting [6]) was > 50% each time.

Take `c1ccc2[nH]c(-c3cnc4[nH]cc(-c5ccnc(NC6CC6)n5)c4c3)cc2c1` [1A19, 4-(5-(1H-indol-2-yl)-1H-pyrrolo[2,3-b]pyridin-3-yl)-N-cyclopropylpyrimidin-2-amine]: the inhibition at 0.5 µM in test [1] (setting [3]), in test [1] (setting [4]), in test [2] (setting [5]) and in test [2] (setting [6]) was > 70% throughout.

`CCc1ccccc1-c1cnc2[nH]cc(-c3ccnc(NCCc4ccccc4)n3)c2c1` [1B10, 4-(5-(2-ethylphenyl)-1H-pyrrolo[2,3-b]pyridin-3-yl)-N-phenethylpyrimidin-2-amine]: the inhibition at 0.5 µM in test [1] (setting [7]), in test [1] (setting [4]), in test [2] (setting [8]) and in test [2] (setting [6]) was > 50% in each case.

Consider `CCc1ccccc1-c1cnc2[nH]cc(-c3ccnc(NC4CC4)n3)c2c1` [1A10, N-cyclopropyl-4-(5-(2-ethylphenyl)-1H-pyrrolo[2,3-b]pyridin-3-yl)pyrimidin-2-amine], for which the inhibition at 0.5 µM in test [1] (setting [3]), in test [1] (setting [4]), in test [2] (setting [5]) and in test [2] (setting [6]) was > 70% in each case.

In the case of `FC(F)(F)Oc1ccc(-c2cnc3[nH]cc(-c4ccnc(NC5CCCCCC5)n4)c3c2)cc1` [1A43, N-cycloheptyl-4-(5-(4-(trifluoromethoxy)phenyl)-1H-pyrrolo[2,3-b]pyridin-3-yl)pyrimidin-2-amine], the inhibition at 0.5 µM in test [1] (setting [3]), in test [1] (setting [4]), in test [2] (setting [5]) and in test [2] (setting [6]) was > 50% throughout.

In the case of `Fc1cccc(-c2cnc3[nH]cc(-c4ccnc(NC5CCCC5)n4)c3c2)c1` [1A25, N-cyclopentyl-4-(5-(3-fluorophenyl)-1H-pyrrolo[2,3-b]pyridin-3-yl)pyrimidin-2-amine], the inhibition at 0.5 µM in test [1] (setting [3]) and in test [2] (setting [5]) was > 70% in each case.

On to `c1ccc2sc(-c3cnc4[nH]cc(-c5ccnc(NC6CC6)n5)c4c3)cc2c1` [1A18, 4-(5-(benzo[b]thiophen-2-yl)-1H-pyrrolo[2,3-b]pyridin-3-yl)-N-cyclopropylpyrimidin-2-amine], for which the inhibition at 0.5 µM in test [1] (setting [3]), in test [1] (setting [4]), in test [2] (setting [5]) and in test [2] (setting [6]) was > 70% in each case.

`FC(F)(F)c1ccc(-c2cnc3[nH]cc(-c4ccnc(NC5CCCC5)n4)c3c2)cc1` [1A21, N-cyclopentyl-4-(5-(4-(trifluoromethyl)phenyl)-1H-pyrrolo[2,3-b]pyridin-3-yl)pyrimidin-2-amine]: the inhibition at 0.5 µM in test [1] (setting [3]) and in test [2] (setting [5]) was < 50% in each case.

On to `c1cc(-c2c[nH]c3ncc(-c4ccoc4)cc23)nc(NC2CCCCCC2)n1` [1A56, N-cycloheptyl-4-(5-(furan-3-yl)-1H-pyrrolo[2,3-b]pyridin-3-yl)pyrimidin-2-amine], for which the inhibition at 0.5 µM in test [1] (setting [7]), in test [1] (setting [4]), in test [2] (setting [8]) and in test [2] (setting [6]) was > 70% throughout.

In the case of `c1ccc2c(-c3cnc4[nH]cc(-c5ccnc(NC6CCCCCC6)n5)c4c3)cccc2c1` [1A54, N-cycloheptyl-4-(5-(naphthalen-1-yl)-1H-pyrrolo[2,3-b]pyridin-3-yl)pyrimidin-2-amine], the inhibition at 0.5 µM in test [1] (setting [7]), in test [1] (setting [4]), in test [2] (setting [8]) and in test [2] (setting [6]) was > 70% in each case.

On to `c1ccc2[nH]c(-c3cnc4[nH]cc(-c5ccnc(NC6CCCC6)n5)c4c3)cc2c1` [1A39, 4-(5-(1H-indol-2-yl)-1H-pyrrolo[2,3-b]pyridin-3-yl)-N-cyclopentylpyrimidin-2-amine], for which the inhibition at 0.5 µM in test [1] (setting [3]), in test [1] (setting [4]), in test [2] (setting [5]) and in test [2] (setting [6]) was > 50% each time.

For `CCc1ccccc1-c1cnc2[nH]cc(-c3ccnc(NC4CCCCCC4)n3)c2c1` [1A50, N-cycloheptyl-4-(5-(2-ethylphenyl)-1H-pyrrolo[2,3-b]pyridin-3-yl)pyrimidin-2-amine], the inhibition at 0.5 µM in test [1] (setting [7]), in test [1] (setting [4]), in test [2] (setting [8]) and in test [2] (setting [6]) was > 70% in each case.

Consider `c1ccc(CCNc2nccc(-c3c[nH]c4ncc(-c5cc6ccccc6s5)cc34)n2)cc1` [1B18, 4-(5-(benzo[b]thiophen-2-yl)-1H-pyrrolo[2,3-b]pyridin-3-yl)-N-phenethylpyrimidin-2-amine], for which the inhibition at 0.5 µM in test [1] (setting [7]), in test [1] (setting [4]), in test [2] (setting [8]) and in test [2] (setting [6]) was > 50% throughout.

Consider `c1ccc(CCNc2nccc(-c3c[nH]c4ncc(-c5ccoc5)cc34)n2)cc1` [1B16, 4-(5-(furan-3-yl)-1H-pyrrolo[2,3-b]pyridin-3-yl)-N-phenethylpyrimidin-2-amine], for which the inhibition at 0.5 µM in test [1] (setting [7]), in test [1] (read-out: inhibition against CDK2), in test [2] (read-out: In vitro CDK9 % of inhibition) and in test [2] (read-out: inhibition against CDK9) was > 70% in each case.

As for `COc1ccc2[nH]c(-c3cnc4[nH]cc(-c5ccnc(NC6CCCC6)n5)c4c3)cc2c1` [1A37, N-cyclopentyl-4-(5-(5-methoxy-1H-indol-2-yl)-1H-pyrrolo[2,3-b]pyridin-3-yl)pyrimidin-2-amine], the inhibition at 0.5 µM in test [1] (setting [3]) and in test [2] (setting [5]) was > 70% in each case.

With `CSc1ccccc1-c1cnc2[nH]cc(-c3ccnc(NC4CCCC4)n3)c2c1` [1A29, N-cyclopentyl-4-(5-(2-(methylthio)phenyl)-1H-pyrrolo[2,3-b]pyridin-3-yl)pyrimidin-2-amine], the inhibition at 0.5 µM in test [1] (setting [3]), in test [1] (setting [4]), in test [2] (setting [5]) and in test [2] (setting [6]) was > 70% each time.

Consider `Cc1cccc(-c2cnc3[nH]cc(-c4ccnc(NC5CCCC5)n4)c3c2)c1` [1A27, N-cyclopentyl-4-(5-(m-tolyl)-1H-pyrrolo[2,3-b]pyridin-3-yl)pyrimidin-2-amine], for which the inhibition at 0.5 µM in test [1] (setting [3]), in test [1] (setting [4]), in test [2] (setting [5]) and in test [2] (setting [6]) was > 50% each time.

Regarding `c1ccc2c(-c3cnc4[nH]cc(-c5ccnc(NC6CCCCCC6)n5)c4c3)nccc2c1` [1A60, N-cycloheptyl-4-(5-(isoquinolin-1-yl)-1H-pyrrolo[2,3-b]pyridin-3-yl)pyrimidin-2-amine], the inhibition at 0.5 µM in test [1] (setting [7]), in test [1] (setting [4]), in test [2] (setting [8]) and in test [2] (setting [6]) was > 70% throughout.
